Columns and labels:
Assay in all cases: relative viability (nuclei count vs DMSO), 5 days (fraction); higher = more cells survive
IU1-47 + Pemetrexed = compound: CC1=CC(=C(N1C2=CC=C(C=C2)Cl)C)C(=O)CN3CCCCC3 [IU1-47] + Nc1nc2[nH]cc(CCc3ccc(C(=O)N[C@@H](CCC(=O)O)C(=O)O)cc3)c2c(=O)[nH]1 [Pemetrexed] (partner 0.2 µM)
Summary of the method: (§1)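 Lung cancer cell lines were pin-tool dosed in 1536-well plates on the day after seeding, with either a lone drug or a fixed anchor-drug dose plus five library-drug doses (not always all listed) in √10 steps. Nuclei were counted on 4× images after 5 days. Relative viability is the ratio of treated-well to vehicle-well nuclei counts, with each value a median of duplicate plates.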

IU1-47 + Olaparib = compound: CC1=CC(=C(N1C2=CC=C(C=C2)Cl)C)C(=O)CN3CCCCC3 [IU1-47] + O=C(c1cc(Cc2n[nH]c(=O)c3ccccc23)ccc1F)N1CCN(C(=O)C2CC2)CC1 [Olaparib] (partner 8 µM)
Summary of the method: as §1

FG-4592 + Pictilisib = compound: Cc1nc(C(=O)NCC(=O)O)c(O)c2ccc(Oc3ccccc3)cc12 [FG-4592] + CS(=O)(=O)N1CCN(Cc2cc3nc(-c4cccc5[nH]ncc45)nc(N4CCOCC4)c3s2)CC1 [Pictilisib] (partner 1 µM)
Summary of the method: as §1

FG-4592 + Vorinostat = compound: Cc1nc(C(=O)NCC(=O)O)c(O)c2ccc(Oc3ccccc3)cc12 [FG-4592] + O=C(CCCCCCC(=O)Nc1ccccc1)NO [Vorinostat] (partner 1 µM)
Summary of the method: as §1

Row | Cell Line | relative viability (IU1-47 + Pemetrexed; first compound 0.08 µM) | relative viability (IU1-47 + Pemetrexed; first compound 0.253 µM) | relative viability (IU1-47 + Pemetrexed; first compound 0.8 µM) | relative viability (IU1-47 + Pemetrexed; first compound 2.53 µM) | relative viability (IU1-47 + Pemetrexed; first compound 8 µM) | relative viability (IU1-47 + Olaparib; first compound 0.08 µM) | relative viability (IU1-47 + Olaparib; first compound 0.253 µM) | relative viability (IU1-47 + Olaparib; first compound 0.8 µM) | relative viability (IU1-47 + Olaparib; first compound 2.53 µM) | relative viability (IU1-47 + Olaparib; first compound 8 µM) | relative viability (FG-4592 + Pictilisib; first compound 0.253 µM) | relative viability (FG-4592 + Pictilisib; first compound 0.8 µM) | relative viability (FG-4592 + Pictilisib; first compound 2.53 µM) | relative viability (FG-4592 + Pictilisib; first compound 8 µM) | relative viability (FG-4592 + Vorinostat; first compound 0.08 µM) | relative viability (FG-4592 + Vorinostat; first compound 0.253 µM) | relative viability (FG-4592 + Vorinostat; first compound 0.8 µM) | relative viability (FG-4592 + Vorinostat; first compound 2.53 µM) | relative viability (FG-4592 + Vorinostat; first compound 8 µM) | relative viability (FG-4592 + Pictilisib; first compound 0.08 µM)
1 | NCI-H2405 | 1.05 | 1.1 | 1.05 | 1.02 | 1.09 | 0.876 | 0.871 | 0.956 | 0.91 | 0.945 | 0.266 | 0.348 | 0.419 | 0.427 | 0.767 | 0.906 | 0.92 | 0.942 | 0.961 | –
2 | NCI-H3122 | 0.197 | 0.206 | 0.204 | 0.218 | 0.205 | 0.644 | 0.665 | 0.692 | 0.692 | 0.696 | 0.57 | 0.511 | 0.583 | 0.605 | 0.997 | 0.906 | 0.975 | 0.975 | 0.592 | 0.735
3 | PC-3 [JPC-3] | 1.13 | 1.12 | 1.04 | 0.774 | 1.07 | 1.19 | 1.2 | 1.14 | 1.11 | 1.04 | 0.7 | 0.59 | 0.764 | 0.791 | 0.705 | 0.797 | – | 0.853 | 0.823 | 0.717
4 | PC-14 | 0.169 | 0.129 | 0.171 | 0.153 | 0.144 | 0.197 | 0.308 | 0.204 | 0.238 | 0.233 | 0.752 | 0.756 | 0.624 | 0.73 | 0.785 | 0.738 | 0.814 | 0.694 | 0.615 | 0.681
5 | RERF-LC-KJ | 0.503 | 0.454 | 0.523 | 0.389 | 0.479 | 0.867 | 0.916 | 0.894 | 0.943 | 0.789 | 0.539 | 0.552 | 0.574 | 0.477 | 0.672 | 0.629 | 0.705 | 0.486 | 0.701 | 0.476
6 | SK-LU-1 | 0.981 | 1.05 | 1.03 | 1.02 | 0.887 | 0.663 | 0.444 | 0.462 | 0.55 | 0.388 | 0.418 | 0.582 | 0.55 | 0.428 | 0.862 | 0.505 | 0.799 | 0.845 | 0.811 | 0.436
7 | SK-MES-1 | 0.95 | 1.05 | 0.97 | 0.993 | 0.854 | 0.823 | 0.771 | 0.664 | 0.652 | 0.786 | 0.361 | 0.318 | 0.367 | 0.383 | 1.13 | 0.969 | 1.02 | 0.947 | 1.02 | 0.358
8 | SW 1573 | 0.935 | 0.912 | 0.766 | 0.657 | 0.749 | 0.592 | 0.462 | 0.445 | 0.453 | 0.501 | 0.402 | 0.443 | 0.56 | 0.484 | 0.708 | 0.965 | 0.604 | 0.543 | 0.494 | 0.504

— the supplement of paper PMC10307832
